{"source": "patent US20030157516A1", "about": "“G protein coupled receptor” (priority 2000, published 2003)", "assay_type_in_all_cases": "cell-based", "key": {"[1]": {"biological_target": "T1, adenine binding GPCR (Rattus norvegicus, UniProt Q7TN49)", "T1 construct": "The full length reading frame was inserted into the mammalian expression vector pcDNA3; expressed in transfected cells; host or cells: HEK293 cells stably transfected with pLEC/Gqi or pLEC/Gqo", "T1 sequence (Q7TN49 1-304)": "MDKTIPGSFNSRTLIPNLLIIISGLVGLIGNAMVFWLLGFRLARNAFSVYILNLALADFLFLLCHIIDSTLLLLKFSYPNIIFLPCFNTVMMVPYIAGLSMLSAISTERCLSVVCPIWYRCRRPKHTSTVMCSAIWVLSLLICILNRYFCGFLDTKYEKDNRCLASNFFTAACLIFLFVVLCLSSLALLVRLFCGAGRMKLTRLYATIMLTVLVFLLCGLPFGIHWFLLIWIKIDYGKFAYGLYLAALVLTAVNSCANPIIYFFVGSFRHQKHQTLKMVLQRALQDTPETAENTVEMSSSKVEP", "assay": "FLIPR Ca2+ transient assay, antagonism of 30 nM adenine challenge", "details": "15 minutes incubation with compound (30 μM to 30 pM), then challenge with 30 nM adenine", "text": "The full length reading frame was inserted into the mammalian expression vector pcDNA3 (Invitrogen, Carlsbad, Calif., U.S.A.) and the resulting expression construct was transiently transfected with the FuGENE 6 reagent (Roche Molecular Biochemicals, Mannheim, Germany) into HEK293 cells stably transfected (E. Bender, unpublished) with pLEC/Gqi or pLEC/Gqo (Molecular Devices, Sunnyvale, Calif., U.S.A.). The cells were loaded with Fluo-4 (Molecular Probes, Eugene, Oreg., U.S.A.) according to the recommendations of the supplier.\nAfter a 15 minutes incubation at room temperature, the same cells were challenged with 30 nM adenine, to detect antagonistic properties of molecules added in the first round of superfusion."}, "[2]": {"biological_target": "T2, adenine binding rat receptor (Rattus norvegicus, UniProt Q7TN49)", "T2 construct": "expressed in transfected cells; host or cells: CHO cells, transient, lipofectamine PLUS", "T2 sequence (Q7TN49 1-304)": "T1 sequence (Q7TN49 1-304)", "assay": "cAMP measurements on CHO cells permanently transfected (clone 28)", "experimental": "(§1) For permanently transfected CHO cells, cAMP measurements were performed using the indirect RIA kit from NEN (Belgium).\n(§2) a) Methods: Two days before the experiment the cells were seeded out in a 96 well plate at a density required for approximately 90% confluence at the day of the experiment. After removal of the growth medium, the cells were washed twice with a controlled salt solution (CSS) containing 25 mM Tris-HCl, pH 7.4, 120 mM NaCl, 5.4 mM KCl, 0.8 mM MgCl2, 1.8 mM CaCl2, 15 mM glucose and 15 mg/l phenol red, with an addition of a phosphodiesterase inhibitor IBMX (3-isobutyl-1-methylxanthine) in a concentration of 1 mM and […]. Basal cAMP levels were determined in CSS containing these additives and maximally stimulated cAMP levels were determined in the presence of 50 μM forskolin. For testing agonistic activity, the compounds were incubated with the cells for 20 minutes at 37° C. The reaction was stopped by addition of ice cold HClO4 (1N) and stored at −20° C. After thawing the mixtures were neutralized with an equivalent amount of phosphate buffered KOH, left at 4° C. during 30 minutes to allow the salts to precipitate and centrifuged at 2,000 RPM for 5 minutes at 4° C.\n(§3) For the quantitative determination of the cAMP levels, a 96-well Flashplate radioimmunoassay kit from NEN was used, according to the protocol of the supplier. The sigmoid concentration response curves (duplicate points) were analyzed using the GraphPad Prism program."}, "[3]": {"system": "wild type CHO cells", "assay": "cAMP measurements on wild type CHO cells", "details": "wild type CHO cells", "experimental": "as §1, §2, §3"}, "[4]": {"biological_target": "T3, rat adenine binding GPCR (Rattus norvegicus, UniProt Q7TN49)", "T3 sequence (Q7TN49 1-304)": "T1 sequence (Q7TN49 1-304)", "assay": "Intracellular Ca2+ measurements (FLIPR) on permanently transfected CHO cells, clone 28", "design": "The full length reading frame was inserted into the mammalian expression vector pcDNA3; expressed in transfected cells", "experimental": "Finally, measurements of intracellular Ca^2+ were performed on the best functionally coupled CHO cell line, clone 28. The effect of Na-butyrate pre-treatment was investigated using a dose response curve of adenine.\na) Methods—Two days before the experiment the cells were seeded out in a 96 well plate at a density required for approximately 90% cell confluence at the day of the experiment. Compounds were diluted in calcium buffer (5 mM HEPES/NaOH, pH 7.4, 140 mM NaCl, 1 mM MgCl2, 5 mM KCl, 10 mM glucose, 1.25 mM CaCl2, 2.5 mM probenecid, pH 7.4), twice their final concentrations. For basal values, calcium buffer was applied and for the maximum response, 10 μM ionomycin was used. The growth medium was removed and the cells were loaded in serum-free growth medium supplemented with probenecid (5 mM), the indicator Fluo-3 (2 μM), 20 mM HEPES/NaOH, pH, 7.4 and 0.1% BSA in the incubator at 37° C. After 60 minutes incubation, the cells were washed 3 times with the calcium buffer. 100 μl of the diluted compounds was transferred to the wells and changes in intracellular calcium levels were measured with the FLIPR® (Fluorometric Imaging Plate Reader, Molecular Devices). Each data point was run in duplicate and the peak of the Ca ^2+-transient was considered as the relevant signal. The sigmoid concentration response curves were analyzed using the GraphPad Prism program."}, "[5]": {"system": "wild type CHO cells", "assay": "Intracellular Ca2+ measurements (FLIPR) on wild type CHO cells"}, "[6]": {"details": "clone 28, Na-butyrate treated cells"}, "[7]": {"details": "clone 28, non-Na-butyrate treated cells"}}, "note": "Where two headings read alike, the source gives them in different places.", "data": [{"molecule": "Nc1ncnc2c1ncn2[C@@H]1O[C@H](COP(=O)(O)O)[C@@H](O)[C@H]1O", "note": "[AMP]", "values": [{"measurement": "antagonistic effect", "setting": "[1]", "result": "did not elicit antagonistic effects"}]}, {"molecule": "Nc1ncnc2nc[nH]c12", "note": "[Adenine, adenine]", "values": [{"measurement": "EC50", "setting": "[2]; after Na-butyrate induction, read-out: EC50", "result": 3, "unit": "nM"}, {"measurement": "EC50", "setting": "[2]; transfected cells (clone 28), 0.5% hiFCS, Na-butyrate induction, read-out: pEC50 (converted)", "result": 2.88, "unit": "nM"}, {"measurement": "EC50", "setting": "[2]; transfected cells (clone 28), 10% hiFCS, Na-butyrate induction, read-out: pEC50 (converted)", "result": 2.95, "unit": "nM"}, {"measurement": "cAMP response", "setting": "[3]", "result": "did not show any response"}, {"measurement": "EC50", "setting": "[4]; [6]", "result": 14.8, "unit": "nM"}, {"measurement": "increase in RFU", "setting": "[4]; [6]", "result": 3, "unit": "fold"}, {"measurement": "EC50", "setting": "[4]; [7]", "result": 72.4, "unit": "nM"}, {"measurement": "increase of the basal relative fluorescence units (RFU)", "setting": "[4]; [7]", "result": 1.25, "unit": "fold"}, {"measurement": "intracellular Ca2+ response", "setting": "[5]", "result": "did not show any response"}]}]}
